Our source for the EC50 and melting point values is patent publication US11008323B2, “Substituted tricyclic 1,4-benzodiazepinone derivatives as allosteric modulators of group II metabotropic glutamate receptors” (Domain Therapeutics, priority 2015, dated 2021).

pEC50: −log10 of the molar value.

One data set deals with T1, human mGluR3 (hmGluR3) (Homo sapiens, UniProt Q14832).
T1 construct: expressed in transfected cells; host or cells: HEK-293 cells, transient co-transfection by electroporation
As to the kind of experiment: Human mGluR3 positive allosteric modulator evaluation using Ca++ functional assay. The format is cell-based. The following applies: hmGluR3 transiently over-expressed in HEK-293 cells; stimulated by EC50 glutamate concentration; intracellular Ca2+ (Fluo4AM, FLIPR Tetra). The method in brief: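 HEK-293 cells transiently co-expressing hmGluR3, a chimeric G protein and two glutamate transporters; Fluo4 calcium read on FLIPR. Compound alone for 10 min (agonist), then EC50 glutamate for 3 min (PAM); 20-point curves gave EC50, duplicate, two independent runs.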

T1 sequence (Q14832 23-879): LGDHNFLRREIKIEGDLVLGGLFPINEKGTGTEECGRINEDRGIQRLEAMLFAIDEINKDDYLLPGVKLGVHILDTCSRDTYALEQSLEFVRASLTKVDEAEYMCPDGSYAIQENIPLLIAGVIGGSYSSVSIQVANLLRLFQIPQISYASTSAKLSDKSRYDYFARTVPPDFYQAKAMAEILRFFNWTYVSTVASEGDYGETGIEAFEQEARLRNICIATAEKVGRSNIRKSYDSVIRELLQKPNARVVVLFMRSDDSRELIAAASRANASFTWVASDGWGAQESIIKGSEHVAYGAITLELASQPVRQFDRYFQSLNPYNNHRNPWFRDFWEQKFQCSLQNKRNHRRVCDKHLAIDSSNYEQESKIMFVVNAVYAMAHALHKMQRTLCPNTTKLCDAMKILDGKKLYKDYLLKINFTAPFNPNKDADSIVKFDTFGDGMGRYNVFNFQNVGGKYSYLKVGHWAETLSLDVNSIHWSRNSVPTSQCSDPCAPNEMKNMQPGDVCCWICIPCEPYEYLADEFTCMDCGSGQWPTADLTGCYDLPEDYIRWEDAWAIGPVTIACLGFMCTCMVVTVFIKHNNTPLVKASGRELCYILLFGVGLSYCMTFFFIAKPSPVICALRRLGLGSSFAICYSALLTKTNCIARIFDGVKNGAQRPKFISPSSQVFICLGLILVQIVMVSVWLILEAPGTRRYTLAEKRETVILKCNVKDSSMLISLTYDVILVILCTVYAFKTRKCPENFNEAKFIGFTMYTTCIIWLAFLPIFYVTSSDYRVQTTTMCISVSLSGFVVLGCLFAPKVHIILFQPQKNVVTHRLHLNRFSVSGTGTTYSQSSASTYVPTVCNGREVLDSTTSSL

For the molecule `CN1C(=O)c2cccn2-c2cc(-c3ccnc(F)c3)ccc2C12CC2` [Example 34, 5-Methyl-9-(2-fluoropyridin-4-yl)-spiro[benzo[f]pyrrolo[1,2-a][1,4]diazepine-6,1′-cyclopropan]-4(5H)-one], the melting point is 197 to 201 °C. The molecule further had a pEC50 on human mGluR3 (hmGluR3) of 6.00 to 7.00.

Molecule `CN1C(=O)c2cc(-c3ccccc3)nn2-c2ccccc2C12CC2` [Example 138, 5-Methyl-2-phenyl-spiro[benzo[f]pyrazolo[1,5-a][1,4]diazepine-6,1′-cyclopropan]-4(5H)-one] showed a melting point of 212 to 218 °C. For the same molecule, the negative logarithm of the EC50 (pEC50) at human mGluR3 (hmGluR3) was under 6.00.

For `CN1C(=O)c2cc(-c3ccccc3)cn2-c2cc(-c3cccnc3F)ccc2C12CC2` [Example 113, 5-Methyl-2-phenyl-9-(2-fluoro-pyridin-3-yl)-spiro[benzo[f]pyrrolo[1,2-a][1,4]diazepine-6,1′-cyclopropan]-4(5H)-one], the melting point lay within 143 to 149 °C. For the same molecule, the pEC50 at human mGluR3 (hmGluR3) was 6.00 to 7.00.

In turn, `CN1C(=O)c2ccc(-c3ccnn3C)n2-c2cc(-c3ccc(F)cn3)ccc2C12CC2` [Example 86, 5-Methyl-1-(2-methyl-2H-pyrazol-3-yl)9-(5-fluoropyridin-2-yl)-spiro[benzo[f]pyrrolo[1,2-a][1,4]diazepine-6,1′-cyclopropan]-4(5H)-one] registered a melting point of 143 to 166 °C. In addition, on human mGluR3 (hmGluR3), the pEC50 was under 6.00.

Molecule `Cc1ccc(-c2ccc3c(c2)-n2cc(CO)cc2C(=O)N(C)C32CC2)cn1` [Example 202] came in with a melting point of 144 to 154 °C. For the same molecule, on human mGluR3 (hmGluR3), the negative logarithm of the EC50 (pEC50) is over 7.00.

For `CN1C(=O)c2cccn2-c2ccccc2C1(C)C` [Example 221, 5,6,6-Trimethyl-5,6-dihydro-benzo[f]pyrrolo[1,2-a][1,4]diazepin-4-one], the melting point was in the range of 127 to 130 °C. Besides, at human mGluR3 (hmGluR3), the pEC50 was under 6.00.

As to `[2H]C([2H])([2H])N1C(=O)c2cccn2-c2cc(-c3ccc(F)nc3)ccc2C12CC2` [Example 55, 5-(Methyl-d3)-9-(6-fluoropyridin-3-yl)-spiro[benzo[f]pyrrolo[1,2-a][1,4]diazepine-6,1′-cyclopropan]-4(5H)-one], the melting point lay in the range of 166 to 178 °C. The molecule further gave a pEC50 on human mGluR3 (hmGluR3) of over 7.00.

Turning to `CN1C(=O)c2cc(-c3ccccc3)nn2-c2cc(-c3ccccc3)ccc2C12CC2` [Example 123, 2,9-Diphenyl-5-methyl-2-spiro[benzo[f]pyrazolo[1,5-a][1,4]diazepine-6,1′-cyclopropan]-4(5H)-one], the melting point lay within 133 to 140 °C. Also, at human mGluR3 (hmGluR3), the negative-log EC50 (pEC50) is under 6.00.

Molecule `COC(=O)c1ncccc1-c1ccc2c(c1)-n1cccc1C(=O)N(C)C21CC1` [Example 71, 5-Methyl-9-(2-methoxycarbonylpyridin-3-yl)-spiro[benzo[f]pyrrolo[1,2-a][1,4]diazepine-6,1′-cyclopropan]-4(5H)-one] registered a melting point of 198 to 203 °C. For the same molecule, the pEC50 on human mGluR3 (hmGluR3) was under 6.00.

`CN1C(=O)c2cccn2-c2cc(-c3cccc(C#N)c3)ccc2C12CC2` [Example 44, 5-Methyl-9-(3-cyanophenyl)-spiro[benzo[f]pyrrolo[1,2-a][1,4]diazepine-6,1′-cyclopropan]-4(5H)-one]: the melting point was 189 to 194 °C. Besides, on human mGluR3 (hmGluR3), the negative logarithm of the EC50 (pEC50) is over 7.00.

In the case of `CN1C(=O)c2cc(-c3ccccc3)cn2-c2cc(-c3cnccn3)ccc2C12CC2` [Example 108, 5-Methyl-2-phenyl-9-pyrazin-2-yl-spiro[benzo[f]pyrrolo[1,2-a][1,4]diazepine-6,1′-cyclopropan]-4(5H)-one], the melting point lay within 130 to 141 °C. The molecule further showed a negative logarithm of the EC50 (pEC50) at human mGluR3 (hmGluR3) of 6.00 to 7.00.

Turning to `CN1C(=O)c2cc(-c3ccccc3)cn2-c2ccc(N3CCOCC3)cc2C12CC2` [Example 120, 8-Morpholin-4-yl-5-methyl-2-phenyl-spiro[benzo[f]pyrrolo[1,2-a][1,4]diazepine-6,1′-cyclopropan]-4(5H)-one], the melting point fell in the range of 117 to 123 °C. This molecule also had a negative logarithm of the EC50 (pEC50) at human mGluR3 (hmGluR3) of under 6.00.

`CN1C(=O)c2cc(-c3nnco3)cn2-c2cc(-c3cccnn3)ccc2C12CC2` [Example 193] yielded a melting point of over 250 °C. The same molecule had a negative-log EC50 (pEC50) on human mGluR3 (hmGluR3) of 6.00 to 7.00.

For `CN1C(=O)c2cc(-c3nnco3)cn2-c2cc(-c3ccc(F)nc3)ccc2C12CC2` [Example 187], the melting point lay within 160 to 175 °C. Besides, the negative-log EC50 (pEC50) on human mGluR3 (hmGluR3) is over 7.00.

Molecule `CN1C(=O)c2cc(-c3ccccc3)cn2-c2cc(-c3ccc(F)cn3)ccc2C12CC2` [Example 110, 5-Methyl-2-phenyl-9-(5-fluoro-pyridin-2-yl)-spiro[benzo[f]pyrrolo[1,2-a][1,4]diazepine-6,1′-cyclopropan]-4(5H)-one] showed a melting point of 140 to 151 °C. The molecule also gave a negative logarithm of the EC50 (pEC50) on human mGluR3 (hmGluR3) of over 7.00.

`Cc1ncsc1-c1ccc2c(c1)-n1cccc1C(=O)N(C)C21CC1` [Example 50, 5-Methyl-9-(4-methylthiazol-5-yl)-spiro[benzo[f]pyrrolo[1,2-a][1,4]diazepine-6,1′-cyclopropan]-4(5H)-one]: the melting point lay within 205 to 212 °C. The pEC50 at human mGluR3 (hmGluR3) is 6.00 to 7.00.

Regarding `[2H]C([2H])([2H])N1C(=O)c2cc(-c3nnco3)cn2-c2cc(-c3ccc(F)nc3)ccc2C12CC2` [Example 188], the melting point is over 250 °C. On human mGluR3 (hmGluR3), this molecule gave a negative logarithm of the EC50 (pEC50) of over 7.00.

Consider `CN1C(=O)c2cc(-c3ccccc3)cn2-c2cc(-c3cccc(S(=O)(=O)N(C)C)c3)ccc2C12CC2` [Example 141, N,N-dimethyl-3-(5-methyl-4-oxo-2-phenyl-4,5-dihydrospiro[benzo[f]pyrrolo[1,2-a][1,4]diazepine-6,1′-cyclopropan]-9-yl)benzenesulfonamide], for which the melting point fell in the range of 198 to 205 °C. In addition, the pEC50 at human mGluR3 (hmGluR3) is 6.00 to 7.00.

In turn, `Cc1ccc2c(c1)C1(CC1)N(C)C(=O)c1cccn1-2` [Example 87, 5,8-Dimethyl-spiro[benzo[f]pyrrolo[1,2-a][1,4]diazepine-6,1′-cyclopropan]-4(5H)-one] had a melting point of 143 to 150 °C. For the same molecule, at human mGluR3 (hmGluR3), the pEC50 was under 6.00.

For `CN1C(=O)c2cc(-c3ccccc3)cn2-c2cc(-c3cccc(C(=O)O)c3)ccc2C12CC2` [Example 94, 3-(5-methyl-4-oxo-2-phenyl-4,5-dihydrospiro[benzo[f]pyrrolo[1,2-a][1,4]diazepine-6,1′-cyclopropan]-9-yl)benzoic acid], the melting point is over 250 °C. The same molecule showed a pEC50 on human mGluR3 (hmGluR3) of over 7.00.

`CN1C(=O)c2cc(-c3ncc[nH]3)cn2-c2cc(-c3ccc(F)nc3)ccc2C12CC2` [Example 186] returned a melting point of over 250 °C. This molecule also had a pEC50 at human mGluR3 (hmGluR3) of over 7.00.

`CN1C(=O)c2cccn2-c2ccc(N3CCOCC3)cc2C12CC2` [Example 88, 8-Morpholin-4-yl-5-methyl-spiro[benzo[f]pyrrolo[1,2-a][1,4]diazepine-6,1′-cyclopropan]-4(5H)-one] registered a melting point of 140 to 146 °C. At human mGluR3 (hmGluR3), this molecule had a pEC50 of under 6.00.

Take `CN1C(=O)c2cccn2-c2cc(-c3cnccc3C(F)(F)F)ccc2C12CC2` [Example 37, 5-Methyl-9-(4-trifluoromethylpyridin-3-yl)-spiro[benzo[f]pyrrolo[1,2-a][1,4]diazepine-6,1′-cyclopropan]-4(5H)-one]: the melting point fell in the range of 67 to 78 °C. At human mGluR3 (hmGluR3), this molecule showed a pEC50 of under 6.00.

`CN1C(=O)c2cccn2-c2cc(-c3ncccc3F)ccc2C12CC2` [Example 66, 5-Methyl-9-(3-fluoropyridin-2-yl)-spiro[benzo[f]pyrrolo[1,2-a][1,4]diazepine-6,1′-cyclopropan]-4(5H)-one]: the melting point fell in the range of 102 to 118 °C. This molecule gave a negative-log EC50 (pEC50) at human mGluR3 (hmGluR3) of under 6.00.

Regarding `CN1C(=O)c2cccn2-c2cc(-c3cccnc3C(C)(C)O)ccc2C12CC2` [Example 72, 5-Methyl-9-(2-(1-hydroxy-1-methyl-ethyl)-pyridin-3-yl)-spiro[benzo[f]pyrrolo[1,2-a][1,4]diazepine-6,1′-cyclopropan]-4(5H)-one], the melting point lay in the range of 220 to 228 °C. Also, the negative logarithm of the EC50 (pEC50) on human mGluR3 (hmGluR3) was under 6.00.

Take `COCN1C(=O)c2cccn2-c2cc(-c3cccnc3C)ccc2C12CC2` [Example 21, 5-Methoxymethyl-9-(2-methyl-pyridin-3-yl)-spiro[benzo[f]pyrrolo[1,2-a][1,4]diazepine-6,1′-cyclopropan]-4(5H)-one]: the melting point is 138 to 142 °C. The molecule also showed a pEC50 on human mGluR3 (hmGluR3) of under 6.00.

In turn, `CN1C(=O)c2cc(-c3nnco3)cn2-c2cc(-c3cccc(C#N)c3)ccc2C12CC2` [Example 192] returned a melting point of over 250 °C. The pEC50 at human mGluR3 (hmGluR3) was over 7.00.

`CN1C(=O)c2cccn2-c2cc(-c3cccnc3C(F)(F)F)ccc2C12CC2` [Example 36, 5-Methyl-9-(2-trifluoromethylpyridin-3-yl)-spiro[benzo[f]pyrrolo[1,2-a][1,4]diazepine-6,1′-cyclopropan]-4(5H)-one]: the melting point was 160 to 165 °C. The negative-log EC50 (pEC50) at human mGluR3 (hmGluR3) is 6.00 to 7.00.

As to `COc1ccc(-c2ccc3c(c2)-n2nc(-c4ccccc4)cc2C(=O)N(C)C32CC2)cc1` [Example 128, 9-(4-Methoxy-phenyl)-5-methyl-2-phenyl-spiro[benzo[f]pyrazolo[1,5-a][1,4]diazepine-6,1′-cyclopropan]-4(5H)-one], the melting point was over 250 °C. This molecule also had a negative-log EC50 (pEC50) on human mGluR3 (hmGluR3) of 6.00 to 7.00.

Turning to `COc1ccc(-c2ccc3c(c2)-n2cccc2C(=O)N(C)C32CC2)cc1OC` [Example 39, 5-Methyl-9-(3,4-dimethoxy-phenyl)-spiro[benzo[f]pyrrolo[1,2-a][1,4]diazepine-6,1′-cyclopropan]-4(5H)-one], the melting point lay in the range of 150 to 154 °C. The pEC50 at human mGluR3 (hmGluR3) was 6.00 to 7.00.

For the molecule `CN1C(=O)c2cccn2-c2cc(-c3cccnc3F)ccc2C12CC2` [Example 33, 5-Methyl-9-(2-fluoropyridin-3-yl)-spiro[benzo[f]pyrrolo[1,2-a][1,4]diazepine-6,1′-cyclopropan]-4(5H)-one], the melting point lay in the range of 158 to 162 °C. The pEC50 at human mGluR3 (hmGluR3) is 6.00 to 7.00.

One may read the pEC50 as the negative decadic logarithm of the EC50, by convention in mol/L. Read a high pEC50 as a low EC50. For orientation: melting point means the temperature, or range, at which the solid turns liquid.
